The values that follow come from US6867179B1, “Methods of inducing hair growth and coloration” (Trustees of Boston University, priority 1994, dated 2005).

Series [1] has as its system Bcl-2 protein. The experiment in a line: Bcl-2 protein expression in MM4 cells (FACScan, Western blot). The class given is cell-based, human. As to the method:
To determine if NGF induces Bcl-2 protein, MM4 cells were UV-irradiated with 10 mJ/cm^2 or sham irradiated and then supplemented with NGF or diluent alone as explained in Example 3. Twenty-four hours after irradiation, cells were washed with PBS and then detached with 0.5 mM EDTA and washed again with PBS. 10^6 cells were incubated with […] mouse anti human Bcl-2 monoclonal antibody (DAKO Co., Carpinteria, Calif.) or with the same concentration of normal mouse IgG (Cappel, Organon Teknika Co., West Chester, Pa., USA) in PBS with 0.3% Saponin (Sigma, St, Louis, Mo.) for 2 hours at 4%C. After three washes with PBS, cells were incubated with fluorescein-conjugated goat anti-mouse IgG (1 hour at 4%C) (Cappel), washed four times in PBS, fixed with 0.1% fresh formaldehyde, and washed three times in PBS. Fluorescence intensity was determined using FACScan flow cytometer (Becton-Dickinson, San Jose, Calif.).
(−) mouse IgG control; (_) diluent alone; ( . . . ) 50 ng/ml NGF.
MM4 cells were extracted in RIPA buffer (50 mM Tris-HCl [pH 8.0], 0.15 M NaCl, 0.5% sodium deoxycholate, 1% Triton X-100) in the presence of […] aprotinin and 75 µg/ml phenylmethylsulfonyl fluoride, sonicated for 1-3 seconds and centrifuged. […] of protein per lane were separated on 12% SDS/PAGE and blotted onto nitrocellulose paper (overnight, 40V). […]
For orientation: In western blotting, separated proteins are transferred to a membrane and probed.

In series [2] the target is T1, p75^NTR (Homo sapiens, UniProt P08138).
T1 sequence (P08138 29-427): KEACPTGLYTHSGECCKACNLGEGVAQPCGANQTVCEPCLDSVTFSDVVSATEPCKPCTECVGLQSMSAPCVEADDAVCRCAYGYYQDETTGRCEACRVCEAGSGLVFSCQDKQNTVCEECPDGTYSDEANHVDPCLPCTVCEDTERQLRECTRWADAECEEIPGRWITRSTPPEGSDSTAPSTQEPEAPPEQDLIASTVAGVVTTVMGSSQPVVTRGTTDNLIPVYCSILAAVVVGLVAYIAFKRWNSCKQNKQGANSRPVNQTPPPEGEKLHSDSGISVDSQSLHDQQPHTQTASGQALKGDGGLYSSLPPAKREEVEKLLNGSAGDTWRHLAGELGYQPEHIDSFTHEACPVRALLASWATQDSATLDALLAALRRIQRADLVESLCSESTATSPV
The series can be described thus: Competition for 125I beta-amyloid 1-40 binding to p75NTR-NIH 3T3 cells. Also noted: expressed in transfected cells; host or cells: NIH 3T3 fibroblasts (p75^NTR NIH 3T3 cells, Dobrowsky et al. 1994). As to the method:
p75^NTR-NIH 3T3 cells were maintain in DMEM supplemented with 10% FBS in the presence of penicillin (45 ng/ml), streptomycin (68 ng/ml), and hygromycin B (17.5 ng/ml). […] After incubation, 1 mM of disuccinimidyl suberate was added for 30 minutes. Following centrifugation cells were lysed with RIPA buffer (50 mM Tris HCl, pH 8.0, […] NaCl 0.5% sodium deoxycholate 4, 5 mM MgCl2, 1% Triton x-100, 1 mM phenylmethylsulfonylfluoride [PMSF], and 1 microg/ml aprotinin), sonicated for 1-3 seconds and immunoprecipitated with anti p75^NTR antibodies (mouse monoclonal IgG1, Cedarlane Laboratories Ltd., Ontario, Canada) or mouse IgG as control for 16 hours at […] in the presence of 15 microl of protein G plus protein A agarose and 1M NaCl adjusted to pH 8.0. After several washes with 20 mM Tris HCl, pH 8.0, 1M NaCl, 5 mM MgCl2, 0.2% Triton X-100 and 1 mM PMSF, immunoprecipitates were separated over 8% PAGE and subjected to autoradiography. A band of 75-80 kD molecular weight was present only in lysates inmmunoprecipitated with anti p75^NTR antibodies and not lysates inmmunoprecipitated with irrelevant mouse IgG.
p75^NTR-NIH 3T3 cells were incubated for 2 hours at […] in binding medium (DMEM, 10 mM hepes, 0.1 mg/ml cytochrome C, 0.01% Tween 80, 1 mg/ml BSA) with ^125I beta-amyloid 1-40 and increasing concentrations of NGF (0-100 ng/ml). […]

“Also recorded” adds a separate entry of the source.

On to “NGF: nerve growth factor, neurotrophin ligand of p75 NGF-R and trk”, for which the Bcl-2 level result in series [1] (UV 10 mJ/cm^2 followed by 50 ng/ml NGF, 24 hours) is listed as “substantially higher; also recorded: Bcl-2 induction”; in series [1] (sham irradiated, 50 ng/ml NGF) it was “only low levels of Bcl-2 protein”. Besides, the “Competition with beta-amyloid for p75NTR binding” value in series [2] is on record as “could be competed off by NGF”. Further, the “Maximum inhibition of 125I beta-amyloid binding” value in series [2] (NGF 100 ng/ml, 2 hours) is listed as 38%.
